Eight compounds from PubChem BioAssay AID1259407 (Chemical Carcinogenesis Research Information System (CCRIS), 2018) can be followed below.

Activity calls are given as the source filed them. How the calls were made is not given here.

The series has as its system CCRIS mutagenicity, Ames/micronucleus/aberration tests. Kind of series: CCRIS mutagenicity studies.
The mark [1] stands for this setting: Test System: AMES SALMONELLA TYPHIMURIUM, Strain/Indicator: TA98, Metabolic Activation: NONE, Method: PREINCUBATION
The mark [2] stands for this setting: Test System: AMES SALMONELLA TYPHIMURIUM, Strain/Indicator: TA98, Metabolic Activation: NONE, Method: STANDARD PLATE.
[3] abbreviates: Test System: AMES SALMONELLA TYPHIMURIUM, Strain/Indicator: TA98, Metabolic Activation: RAT, LIVER, S-9, AROCLOR 1254, Method: STANDARD PLATE.
The mark [4] stands for this setting: Test System: AMES SALMONELLA TYPHIMURIUM, Strain/Indicator: TA100, Metabolic Activation: NONE, Method: PREINCUBATION
The mark [5] stands for this setting: Test System: AMES SALMONELLA TYPHIMURIUM, Strain/Indicator: TA100, Metabolic Activation: NONE, Method: STANDARD PLATE.
Setting [6] is: Test System: AMES SALMONELLA TYPHIMURIUM, Strain/Indicator: TA100, Metabolic Activation: RAT, LIVER, S-9, AROCLOR 1254, Method: STANDARD PLATE.

For the compound `Nc1cc2nc3ccccc3nc2cc1O`, the mutagenic call reads like this: (Test System: AMES SALMONELLA TYPHIMURIUM, Strain/Indicator: TA98(1,8-DNP6), Metabolic Activation: NONE, Method: PREINCUBATION) “inactive; negative”; (Test System: AMES SALMONELLA TYPHIMURIUM, Strain/Indicator: TA98(1,8-DNP6), Metabolic Activation: S-9, Method: PREINCUBATION) “inactive; negative”; under setting [1], “inactive; negative”; under setting [2], “active; positive”; under setting [3], “active; positive”; (Test System: AMES SALMONELLA TYPHIMURIUM, Strain/Indicator: TA98, Metabolic Activation: S-9, Method: PREINCUBATION) “inactive; negative”. For the same compound, the mutagenic call is, setting by setting: (Test System: AMES SALMONELLA TYPHIMURIUM, Strain/Indicator: TA100(OAT-), Metabolic Activation: NONE, Method: PREINCUBATION) “inactive; negative”; (Test System: AMES SALMONELLA TYPHIMURIUM, Strain/Indicator: TA100(OAT-), Metabolic Activation: S-9, Method: PREINCUBATION) “inactive; negative”; under setting [4], “inactive; negative”; under setting [5], “inactive; negative”; under setting [6], “active; positive”; (Test System: AMES SALMONELLA TYPHIMURIUM, Strain/Indicator: TA100, Metabolic Activation: S-9, Method: PREINCUBATION) “inactive; negative”. The mutagenic call by setting is: (Test System: AMES SALMONELLA TYPHIMURIUM, Strain/Indicator: TA1537, Metabolic Activation: NONE, Method: STANDARD PLATE) “active; positive”; (Test System: AMES SALMONELLA TYPHIMURIUM, Strain/Indicator: TA1537, Metabolic Activation: RAT, LIVER, S-9, AROCLOR 1254, Method: STANDARD PLATE) “active; positive”; (Test System: AMES SALMONELLA TYPHIMURIUM, Strain/Indicator: YG1024, Metabolic Activation: PLANT CELL-FREE EXTRACT, Method: PREINCUBATION) “active; positive”; (Test System: AMES SALMONELLA TYPHIMURIUM, Strain/Indicator: YG1024, Metabolic Activation: S-9, Method: PREINCUBATION) “active; positive”; (Test System: AMES SALMONELLA TYPHIMURIUM, Strain/Indicator: YG1029, Metabolic Activation: S-9, Method: PREINCUBATION) “active; positive”.
On to `COc1cccc2c1OC1(C)OOC21C` (stereo not given), for which the mutagenic call under setting [4] is “active; positive”.
As for `Cc1cc(O)cc2oc(=O)c3c(O)cc(O)cc3c12`, the mutagenic call runs as follows: under setting [2], “inactive; negative”; (Test System: AMES SALMONELLA TYPHIMURIUM, Strain/Indicator: TA98, Metabolic Activation: RAT LIVER S-9, AROCLOR 1254, Method: STANDARD PLATE) “inactive; negative”; under setting [3], “inactive; negative”; under setting [5], “inactive; negative”; (Test System: AMES SALMONELLA TYPHIMURIUM, Strain/Indicator: TA100, Metabolic Activation: RAT LIVER S-9, AROCLOR 1254, Method: STANDARD PLATE) “inactive; negative”; under setting [6], “inactive; negative”. The mutagenic call by setting is: (Test System: Ames Salmonella typhimurium, Strain/Indicator: TA97, Metabolic Activation: None, Method: Standard plate) “inactive; negative. nitrosation did not increase mutagenic activity”; (Test System: Ames Salmonella typhimurium, Strain/Indicator: TA97, Metabolic Activation: Rat, Liver, S-9, Aroclor 1254 (10%), Method: Standard plate) “inactive; negative. nitrosation did not increase mutagenic activity”; (Test System: Ames Salmonella typhimurium, Strain/Indicator: TA102, Metabolic Activation: None, Method: Standard plate) “active; positive. nitrosation led to mutagenic product”; (Test System: Ames Salmonella typhimurium, Strain/Indicator: TA102, Metabolic Activation: Rat, Liver, S-9, Aroclor 1254 (10%), Method: Standard plate) “active; positive. nitrosation led to mutagenic product”; (Test System: Ames Salmonella typhimurium, Strain/Indicator: TA104, Metabolic Activation: None, Method: Standard plate) “inactive; negative. nitrosation did not increase mutagenic activity”; (Test System: Ames Salmonella typhimurium, Strain/Indicator: TA104, Metabolic Activation: Rat, Liver, S-9, Aroclor 1254 (10%), Method: Standard plate) “inactive; negative. nitrosation did not increase mutagenic activity”.
With `CC(OP(=O)(OC(C)C(Br)CBr)OC(C)C(Br)CBr)C(Br)CBr` (stereo not given), the mutagenic call reads like this: (Test System: AMES SALMONELLA TYPHIMURIUM, Strain/Indicator: TA100, Metabolic Activation: RAT, LIVER, MICROSOMES, PHENOBARBITAL, Method: PREINCUBATION) “active; positive”; (Test System: AMES SALMONELLA TYPHIMURIUM, Strain/Indicator: TA100, Metabolic Activation: RAT, LIVER, MICROSOMES, Method: PREINCUBATION) “active; positive”.
`CCCCCCCCCCCCCC(=O)ON(C(C)=O)c1ccc2c(c1)Cc1ccccc1-2`: the mutagenic call (Test System: UDS HUMAN FIBROBLASTS, Strain/Indicator: THY INCORP (NON-S-PHASE), Metabolic Activation: NONE, Method: AUTORADIOGRAPHY) was “active; positive”.
Turning to `CCCCCCCCCCCCCCCCCC(=O)NCCNC(=O)CCCCCCCCCCCCCCCCC`, the mutagenic call runs as follows: under setting [1], “inactive; negative”; (Test System: AMES SALMONELLA TYPHIMURIUM, Strain/Indicator: TA98, Metabolic Activation: RAT LIVER S-9, PHENOBARBITAL AND BETA-NAPHTHOFLAVONE, Method: PREINCUBATION) “inactive; negative”; (Test System: AMES SALMONELLA TYPHIMURIUM, Strain/Indicator: TA98, Metabolic Activation: RAT, LIVER, S-9, KC 500, Method: PREINCUBATION) “inactive; negative”; under setting [4], “inactive; negative”; (Test System: AMES SALMONELLA TYPHIMURIUM, Strain/Indicator: TA100, Metabolic Activation: RAT LIVER S-9, PHENOBARBITAL AND BETA-NAPHTHOFLAVONE, Method: PREINCUBATION) “inactive; negative”; (Test System: AMES SALMONELLA TYPHIMURIUM, Strain/Indicator: TA100, Metabolic Activation: RAT, LIVER, S-9, KC 500, Method: PREINCUBATION) “inactive; negative”. Moreover, the mutagenic call was “inactive; negative” (Test System: AMES SALMONELLA TYPHIMURIUM, Strain/Indicator: TA1535, Metabolic Activation: NONE, Method: PREINCUBATION); “inactive; negative” (Test System: AMES SALMONELLA TYPHIMURIUM, Strain/Indicator: TA1535, Metabolic Activation: RAT LIVER S-9, PHENOBARBITAL AND BETA-NAPHTHOFLAVONE, Method: PREINCUBATION); “inactive; negative” (Test System: AMES SALMONELLA TYPHIMURIUM, Strain/Indicator: TA1535, Metabolic Activation: RAT, LIVER, S-9, KC 500, Method: PREINCUBATION); “inactive; negative” (Test System: AMES SALMONELLA TYPHIMURIUM, Strain/Indicator: TA1537, Metabolic Activation: NONE, Method: PREINCUBATION); “inactive; negative” (Test System: AMES SALMONELLA TYPHIMURIUM, Strain/Indicator: TA1537, Metabolic Activation: RAT LIVER S-9, PHENOBARBITAL AND BETA-NAPHTHOFLAVONE, Method: PREINCUBATION); “inactive; negative” (Test System: AMES SALMONELLA TYPHIMURIUM, Strain/Indicator: TA1537, Metabolic Activation: RAT, LIVER, S-9, KC 500, Method: PREINCUBATION). Besides, the mutagenic call was “inactive; negative” (Test System: AMES SALMONELLA TYPHIMURIUM, Strain/Indicator: TA1538, Metabolic Activation: NONE, Method: PREINCUBATION); “inactive; negative” (Test System: AMES SALMONELLA TYPHIMURIUM, Strain/Indicator: TA1538, Metabolic Activation: RAT, LIVER, S-9, KC 500, Method: PREINCUBATION); “inactive; negative” (Test System: E. COLI, Strain/Indicator: WP2 UVRA, Metabolic Activation: NONE, Method: PREINCUBATION); “inactive; negative” (Test System: E. COLI, Strain/Indicator: WP2 UVRA, Metabolic Activation: RAT, LIVER, S-9, KC 500, Method: PREINCUBATION); “inactive; negative” (Test System: E.COLI, Strain/Indicator: WP2UVRA/PKM101, Metabolic Activation: NONE, Method: PREINCUBATION); “inactive; negative” (Test System: E.COLI, Strain/Indicator: WP2UVRA/PKM101, Metabolic Activation: RAT LIVER S-9, PHENOBARBITAL AND BETA-NAPHTHOFLAVONE, Method: PREINCUBATION).
For the compound `N[C@@H]1CCCCN1.[Cl][Pt][Cl]`, the mutagenic call by setting is: under setting [1], “active; positive”; under setting [4], “active; positive”; (Test System: AMES SALMONELLA TYPHIMURIUM, Strain/Indicator: TA100, Metabolic Activation: RAT, LIVER, S-9, AROCLOR 1254, Method: PREINCUBATION) “active; positive”.
Take `CN1CSC(=S)N(C)C1`: the mutagenic call (End Point: In vivo micronucleus, Test System: Micronucleated polychromatic erythrocytes, Species: Mouse, Strain/Sex: NMRI / Males and females, Route: Oral) is “inactive; negative”.
